Experimental findings from article doi:10.1101/695973v1 (biorxiv, 2019) are described below.

The term Km denotes the concentration of substrate that gives half-maximal velocity.

In assay [1] the test system is β-lactamase Mm3. As to conditions: 20 mM sodium phosphate, 0.2 M NaCl, pH 7.4, 30°C; Hill equation, nH 2.36.
Assay [2] relates to β-lactamase Mm3. Kind of assay: spectrophotometric hydrolysis at […] nm, initial rates, Michaelis-Menten fit. It counts as biochemical, uncultured bacterium. As to conditions: 20 mM sodium phosphate, 0.2 M NaCl, pH 7.4, 30°C.

Like-named read-outs stand apart in the source and are kept apart here.

For the compound `CC1(C)S[C@@H]2[C@H](NC(=O)[C@H](N)c3ccccc3)C(=O)N2[C@H]1C(=O)O` [ampicillin], in the assay on β-lactamase Mm3 [1], the Km was found to be 271 ± 16.4 µM. As for `CC1(C)S[C@@H]2[C@H](NC(=O)C(C(=O)O)c3ccccc3)C(=O)N2[C@H]1C(=O)O` (some centres unmarked) [carbenicillin], the Km in the assay on β-lactamase Mm3 [2] turned out to be 400 ± 42.7 µM.
